This note sets out measurements from ChEMBL document CHEMBL1201862, “PubChem BioAssay data set” (2004).

Molecules are shown by their SMILES.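 Interpolation was linear, between the two tested concentrations surrounding the appropriate level; five concentrations were tested over 48 hours in 96-well plates. Here, GI50 denotes the concentration required for 50% inhibition of growth.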 The source made the active and inactive calls. Rule as the data show it: active = GI50 up to about 1.1 µM and inactive = higher.

What all share (test): NCI anticancer screen, dose series, 48 h
For assay [1], the system named is SK-MEL-5.
The subject of assay [2] is HOP-92.
Assay [3] has as its system KM12.
The test system of assay [4] is MDA-MB-231.
The subject of assay [5] is T47D.
The test system of assay [6] is SK-OV-3.
Assay [7] concerns OVCAR-8.
Assay [8] deals with UACC-62.
In assay [9] the test system is SR.
Assay [10] has as its system OVCAR-3.
Assay [11] has as its system OVCAR-4.
Assay [12] concerns SNB-19.
Assay [13] has as its system RPMI-8226.
The subject of assay [14] is SF-268.
Assay [15] deals with CCRF-CEM.
The test system of assay [16] is LOX IMVI.
In assay [17] the test system is IGROV-1.
Assay [18] concerns MCF7.
Assay [19] has as its system SNB-75.
Assay [20] deals with NCI-H226.

Regarding `COC(=O)NC(Cc1ccccc1)NC(C)=O` (stereo not drawn), the GI50 is > 100 µM (inactive) in assay [1]; > 100 µM (inactive) in assay [2]; > 100 µM (inactive) in [3]; 71 µM (inactive) in assay [4]; > 100 µM (inactive) in assay [5]; > 100 µM (inactive) in [6]. Further, the GI50 in assay [7], in [8], in [9], in assay [10], in [11] and in [12] was > 100 µM (inactive) in each case. In addition, the GI50 in assay [13], in assay [14], in [15], in assay [16], in assay [17] and in assay [18] was > 100 µM (inactive) each time. Further, in assay [19], the GI50 was > 100 µM (inactive).
Consider `CCOP(=O)(OCC)C(NC(=O)C(C(F)(F)F)C(F)(F)F)c1ccccc1` (stereo not drawn), for which the GI50 in [1] is > 100 µM (inactive); in assay [2], > 100 µM (inactive); in [3], > 100 µM (inactive); in assay [4], > 100 µM (inactive); in [5] it was 84.1 µM (inactive); in assay [6], > 100 µM (inactive). For the same molecule, the GI50 in [7] is > 100 µM (inactive); in assay [8] it was > 100 µM (inactive); in assay [9], 59.6 µM (inactive); in assay [10], > 100 µM (inactive); in assay [11], > 100 µM (inactive); in assay [12] it was > 100 µM (inactive). The GI50 in assay [13] is 21.7 µM (inactive); in [14], > 100 µM (inactive); in [15], 36.6 µM (inactive); in assay [16], > 100 µM (inactive); in assay [17], > 100 µM (inactive); in assay [18] it was 97.9 µM (inactive). In [19], the GI50 is > 100 µM (inactive).
For `CC(=O)N1N=C(c2ccccc2Nc2ccccc2C2=NN(C(C)=O)C(c3ccccc3)O2)OC1c1ccccc1` (stereo not drawn), the GI50 in assay [1] is 51.2 µM (inactive); in assay [2] it was 93.8 µM (inactive); in [4], > 100 µM (inactive); in [5], > 100 µM (inactive); in assay [6], 30.3 µM (inactive); in assay [7] it was 71.6 µM (inactive). The GI50 was 35 µM (inactive) in assay [8]; > 100 µM (inactive) in assay [9]; > 100 µM (inactive) in assay [10]; 29.8 µM (inactive) in [11]; > 100 µM (inactive) in assay [12]; > 100 µM (inactive) in [20]. Besides, the GI50 in assay [13] is 25.3 µM (inactive); in [16], 81.8 µM (inactive); in assay [17], > 100 µM (inactive); in [18] it was 11.5 µM (inactive).
As to `NC(CCC(=O)O)(CCC(=O)O)CCC(=O)O`, the GI50 in [1], in assay [2], in assay [3], in assay [4], in assay [5] and in assay [6] was > 100 µM (inactive) in each case. Further, the GI50 in [7], in assay [8], in assay [9], in assay [12], in assay [20] and in assay [13] was > 100 µM (inactive) in each case. The GI50 in assay [14], in assay [15], in [17], in assay [18] and in assay [19] was > 100 µM (inactive) each time.
As to `COc1ccc2cc(C(=O)NCCc3ccccc3)ccc2c1OC`, the GI50 is 97.3 µM (inactive) in assay [1]; 49.1 µM (inactive) in assay [2]; 33.6 µM (inactive) in assay [4]; 26.5 µM (inactive) in assay [5]; 65.3 µM (inactive) in assay [6]; 79.6 µM (inactive) in assay [7]. Further, the GI50 is > 100 µM (inactive) in [8]; 49.9 µM (inactive) in assay [9]; 46.1 µM (inactive) in assay [10]; > 100 µM (inactive) in assay [11]; 68.1 µM (inactive) in [12]; 63 µM (inactive) in assay [20]. Also, the GI50 was > 100 µM (inactive) in [13]; 54.3 µM (inactive) in [14]; > 100 µM (inactive) in assay [16]; > 100 µM (inactive) in assay [17]; > 100 µM (inactive) in assay [18].
On to `CC(=O)Nc1nc(C)c(S(=O)(=O)NC(=O)N2c3ccccc3CCc3ccccc32)s1`, for which the GI50 in assay [1], in [2], in assay [3], in [4], in assay [5] and in assay [6] was > 100 µM (inactive) each time. Further, the GI50 in assay [7] is > 100 µM (inactive); in assay [8] it was > 100 µM (inactive); in [9] it was > 100 µM (inactive); in [10] it was > 100 µM (inactive); in assay [11], > 100 µM (inactive); in assay [12] it was 29.4 µM (inactive). The GI50 in assay [13] was > 100 µM (inactive); in assay [14] it was > 100 µM (inactive); in assay [15] it was 44.6 µM (inactive); in [16], > 100 µM (inactive); in [17], > 100 µM (inactive); in assay [18], > 100 µM (inactive). Further, in assay [19], the GI50 is > 100 µM (inactive).
Consider `COc1ccc2nc3ccc(OC)cc3c(S(=O)(=O)Cc3ccc([N+](=O)[O-])cc3)c2c1`, for which the GI50 is > 100 µM (inactive) in assay [2]; > 100 µM (inactive) in assay [3]; 61.7 µM (inactive) in assay [4]; > 100 µM (inactive) in [5]; > 100 µM (inactive) in assay [6]; > 100 µM (inactive) in assay [7]. Besides, the GI50 in assay [8], in assay [9], in assay [10], in [11], in assay [12] and in [20] was > 100 µM (inactive) in each case. Further, the GI50 is 85.5 µM (inactive) in [14]; > 100 µM (inactive) in assay [15]; > 100 µM (inactive) in assay [16]; > 100 µM (inactive) in assay [17]; > 100 µM (inactive) in [18]; 38.7 µM (inactive) in assay [19].
Take `C#CCCCC(=O)N(C(=O)C[S+]([O-])CC)c1ccccc1` (stereo not drawn): the GI50 in [1], in assay [2], in assay [3], in [4], in assay [5] and in [6] was > 100 µM (inactive) each time. Also, the GI50 in assay [7], in assay [8], in assay [9], in assay [10], in [11] and in assay [12] was > 100 µM (inactive) in each case. Moreover, the GI50 in assay [20], in assay [14], in assay [15], in assay [16], in assay [17] and in assay [18] was > 100 µM (inactive) throughout. For the same molecule, the GI50 in assay [19] is > 100 µM (inactive).
In the case of `COC(=O)C1=Nc2c(C)nn(-c3ccccc3)c2N=C(c2ccc([N+](=O)[O-])cc2)C1`, the GI50 in assay [1], in assay [2], in assay [3], in assay [4], in assay [5] and in assay [6] was > 10 µM (inactive) throughout. For the same molecule, the GI50 in assay [7], in assay [8], in assay [9], in assay [10], in assay [11] and in [12] was > 10 µM (inactive) in each case. The GI50 in assay [13], in assay [14], in assay [15], in assay [16], in [17] and in assay [18] was > 10 µM (inactive) each time. The GI50 in [19] was > 10 µM (inactive).
For the molecule `Cc1c(/N=N/c2ccc(Cl)cc2)c(-c2ccccc2)n(C2OC(CO)C(O)C(O)C2O)c(=S)c1C#N` (stereo not drawn), the GI50 was 13.1 µM (inactive) in [1]; 14.2 µM (inactive) in [2]; 16.8 µM (inactive) in [3]; 20.3 µM (inactive) in assay [4]; 19.1 µM (inactive) in assay [5]; 16.9 µM (inactive) in assay [6]. The GI50 was 13.4 µM (inactive) in [8]; 20.6 µM (inactive) in [9]; 18.5 µM (inactive) in [10]; 17.2 µM (inactive) in assay [11]; 12.3 µM (inactive) in [12]; 25.2 µM (inactive) in assay [13]. The GI50 in [14] was 22.2 µM (inactive); in assay [15], 10 µM (inactive); in [16] it was 18.2 µM (inactive); in assay [17] it was 15.1 µM (inactive); in assay [18], 15.2 µM (inactive); in assay [19], 18.7 µM (inactive).
On to `C[N+](C)(C)CC1CCC(C[N+](C)(C)C)C1=O` (stereo not drawn), for which the GI50 was 9.02 µM (inactive) in assay [1]; 0.92 µM (active) in assay [2]; 4.65 µM (inactive) in assay [3]; 19.6 µM (inactive) in [4]; 3.42 µM (inactive) in assay [5]; 23.4 µM (inactive) in assay [6]. Also, the GI50 in [8] was 8.53 µM (inactive); in [9], 0.4 µM (active); in assay [10] it was 2.39 µM (inactive); in [11] it was 2.38 µM (inactive); in assay [12], 17.9 µM (inactive); in [20] it was 12.9 µM (inactive). For the same molecule, the GI50 in assay [13] is 0.328 µM (active); in assay [16] it was 4.84 µM (inactive); in [17], 7.94 µM (inactive); in assay [18], 1.75 µM (inactive); in assay [19] it was 1.95 µM (inactive).
